Here are results for 1 compound from patent EP2402012B1, “Liquid formulations of rupatadine fumarate” (J. Uriach y Compania S.A., priority 2010, dated 2012).

Counter-ions that a name gives are not always drawn.

Data set [1] in a line: Solubility of rupatadine fumarate in water and in buffer solutions at different pH. It is filed as physicochemical. As to conditions: water; 25 g/L added, stirring 16 - 24 h, filtered; room temperature. As for the experimental part: The solubility of rupatadine fumarate was determined by adding 25 g/L of rupatadine fumarate to water and stirring during 16 - 24 h. The resulting solution was filtered and the amount of rupatadine determined using the Method 2. Using the same procedure, but using buffer solutions of known pH instead of water, the solubility of rupatadine fumarate at different pH was determined (the pH of the solution was measured prior to the addition of rupatadine fumarate).

Data set [2] is described as follows: Rate of formation of Compound II in aqueous solutions of rupatadine fumarate on storage (HPLC, Method 2). It is filed as physicochemical. As to conditions: aqueous solution 1 g(rupatadine fumarate)/L. As for the experimental part: The HPLC method used to determine the % Compound II present in a formulation is based on the European Pharmacopoeia 2.2.29 using the following conditions: • room temperature and atmospheric pressure • column: C1810 µm (3.9 mm x 30 cm) • eluent: Methanol - Phosphate buffer solution pH 4.2 (75:25) • eluent flow: 1.3 mL/min • detection: UV-Visible spectrophotometer at 265 nm • retention time of Rupatadine: aprox. 8.9 min • relative retention time of Compound II: aprox. 0.43 Reference standard solutions of rupatadine and Compound II (which can be prepared as described in Reference Example 3) are used in the identification of the components. The test sample is compared to the equivalent placebo (same formulation without rupatadine fumarate) to check overlapping peaks with other excipients in the formulation. The % Compound II is calculated as 100*(area of Compound II peak)/(area of rupatadine peak). Different aqueous solutions comprising rupatadine fumarate at a concentration of 1 g(rupatadine fumarate)/L at different pH (3.41, 4.38 and 5.00), obtained adding the required amount of solutions of HCl(aq) or NaOH(aq) to solutions containing only water and rupatadine fumarate, were stored at different temperature conditions (room temperature and 40°C/75%HR) during two months and analyzed at the beginning, at one month and at the end of the period using Method 2, see table below.

For the compound `Cc1cncc(CN2CCC(=C3c4ccc(Cl)cc4CCc4cccnc43)CC2)c1` [rupatadine fumarate], in data set [1], the solubility (as a rule, the concentration that dissolves in the medium under given conditions) stood at 2900 µg/mL. The “% Compound II 1 month” value in data set [2] (pH 3.41, 25 ± 2°C) was determined as 0.174%; in data set [2] (pH 3.41, 40 ± 2°C) it was 0.737%; in data set [2] (pH 4.38, 25 ± 2°C), 0.090%; in data set [2] (pH 4.38, 40 ± 2°C), 0.357%; in data set [2] (pH 5.00, 25 ± 2°C), 0.039%; in data set [2] (pH 5.00, 40 ± 2°C), 0.112%. Moreover, the “% Compound II 2 months” value in data set [2] (pH 3.41, 25 ± 2°C) came to 0.276%; in data set [2] (pH 3.41, 40 ± 2°C), 1.396%; in data set [2] (pH 4.38, 25 ± 2°C), 0.142%; in data set [2] (pH 4.38, 40 ± 2°C), 0.646%; in data set [2] (pH 5.00, 25 ± 2°C) it was 0.051%; in data set [2] (pH 5.00, 40 ± 2°C) it was 0.182%. In addition, the figures for the “% Compound II initial” value in data set [2] (pH 3.41), in data set [2] (pH 4.38) and in data set [2] (pH 5.00) were 0.035%, 0.036% and 0.040%, respectively.
